Several values for one entry are separate records, joined by “and”; a condition that tells them apart may be missing. Equal values may be shown once. Read-outs that look alike come from different tables or passages of the source.
Experiments:
[1] = Pharmacokinetic study, single 30 mg/kg IP dose, plasma, liver and bone; format: in vivo, mouse; parameters: levels in plasma, liver, and bone: scale not given here; details: for Liver concentration / Plasma concentration / Bone concentration / concentration at 2 h / concentration at 12 h / concentration at 0.083 h / concentration at 0.25 h / concentration at 1 h: IP
Protocol: The concentration of compound in plasma, liver, and long bones was detected using liquid chromatography tandem mass spectrometry (LC-MS/MS). Samples were collected after a single intraperitoneal (IP) administration at 30 mg/kg, a single intravenous (IV) administration at 3 mg/kg, a single oral (PO) administration at 10 mg/kg, and a daily PO administration for 3 consecutive days at 10 mg/kg. The compound was formulated in 75% PEG300 + 25% of 40% aq. HPBCD for IV and PO administration and in 60% Phosal + 40% PEG300 for IP administration. All tissue samples were homogenized in water at a tissue weight to water volume ratio 1:3.
single dose IP administration. a Plasma, b liver and c bone profiles in female mice.
The actual concentration (ng/g) is the detected value (ng/mL) multiplied by 4. Drug
vehicle is 60% Phosal : 40% PEG300. 3 mice were used per time point. Results are
expressed as the mean ± SEM.

[2] = system: osteoblast markers Alp, Col1a1, Osteocalcin, Runx2; experiment: Quantitative RT-PCR of osteoblast markers in tibia after 8-week oral treatment; format: in vivo, mouse; details: normalized to control group, 10 mg/kg PO, 8 weeks, individual mice
[3] = Time 0.083 h, individual values (1)-(3)
[4] = Time 0.25 h, individual values (1)-(3)
[5] = Time 0.5 h, individual values (1)-(3)
[6] = Time 1 h, individual values (1)-(3)
[7] = Time 2 h, individual values (1)-(3)
[8] = Time 4 h, individual values (1)-(3)
[9] = Time 8 h, individual values (1)-(3)
[10] = Time 12 h, individual values (1)-(3)
[11] = single 30 mg/kg IP, female mice

O=C1Nc2ccc(-c3cc(C(F)(F)F)cc(C(F)(F)F)c3)cc2C(=O)N2CCN(C(=O)COc3ccc(OC(F)(F)F)cc3I)C[C@@H]12 [compound 6641]
Liver concentration [1, 3]: 1132 ng/g and 1016 ng/g
Plasma concentration [1, 3]: 42.7 ng/mL and 44.4 ng/mL
Bone concentration [1, 4]: 618 ng/g and 42.7 ng/g and 69 ng/g
Liver concentration [1, 4]: 1852 ng/g and 1212 ng/g
Plasma concentration [1, 4]: 135 ng/mL and 133 ng/mL
Bone concentration [1, 5]: 79.8 ng/g and 96 ng/g and 167 ng/g
Liver concentration [1, 5]: 2324 ng/g and 2784 ng/g
Plasma concentration [1, 5]: 259 ng/mL and 440 ng/mL
Bone concentration [1, 6]: 204 ng/g and 273 ng/g and 532 ng/g
Liver concentration [1, 6]: 4720 ng/g and 3880 ng/g
Plasma concentration [1, 6]: 507 ng/mL and 673 ng/mL
Bone concentration [1, 7]: 346 ng/g and 472 ng/g
Liver concentration [1, 7]: 10000 ng/g and 4520 ng/g and 5600 ng/g
Plasma concentration [1, 7]: 819 ng/mL and 1140 ng/mL
Bone concentration [1, 8]: 708 ng/g and 1566 ng/g and 1740 ng/g
Liver concentration [1, 8]: 15760 ng/g and 16960 ng/g
Plasma concentration [1, 8]: 2340 ng/mL and 4780 ng/mL and 5300 ng/mL
Bone concentration [1, 9]: 3162 ng/g and 948 ng/g and 3258 ng/g
Liver concentration [1, 9]: 19080 ng/g and 9320 ng/g and 24920 ng/g
Plasma concentration [1, 9]: 3040 ng/mL and 3010 ng/mL
Bone concentration [1, 10]: 1716 ng/g and 1458 ng/g
Liver concentration [1, 10]: 18480 ng/g and 15600 ng/g
Plasma concentration [1, 10]: 3930 ng/mL and 2630 ng/mL
concentration at 2 h ([1]; female, C57BL/6 J, mouse, bone, ip, 30 mg/kg, Time 2 h, individual values (1)-(3), read-out: Bone concentration): 492 ng/g
concentration at 12 h ([1]; female, C57BL/6J, mouse, bone, ip, 30 mg/kg, Time 12 h, individual values (1)-(3), read-out: Bone concentration): 2830 ng/g
concentration at 0.083 h ([1]; female, C57BL/6J, mouse, liver, ip, 30 mg/kg, Time 0.083 h, individual values (1)-(3), read-out: Liver concentration): 1060 ng/g
concentration at 0.25 h ([1]; female, C57BL/6J, mouse, liver, ip, 30 mg/kg, Time 0.25 h, individual values (1)-(3), read-out: Liver concentration): 1800 ng/g
concentration at 1 h ([1]; female, C57BL/6J, mouse, liver, ip, 30 mg/kg, Time 1 h, individual values (1)-(3), read-out: Liver concentration): 4920 ng/g
concentration at 12 h ([1]; female, C57BL/6J, mouse, liver, ip, 30 mg/kg, Time 12 h, individual values (1)-(3), read-out: Liver concentration): 13600 ng/g
concentration at 0.5 h ([1]; female, C57BL/6J, mouse, liver, ip, 30 mg/kg, Time 0.5 h, individual values (1)-(3)): 3040 ng/g
concentration at 4 h ([1]; female, C57BL/6J, mouse, liver, ip, 30 mg/kg, Time 4 h, individual values (1)-(3)): 11000 ng/g
concentration at 0.083 h ([1]; female, C57BL/6J, mouse, plasma, ip, 30 mg/kg, Time 0.083 h, individual values (1)-(3), read-out: Plasma concentration): 60.9 ng/mL
concentration at 0.25 h ([1]; female, C57BL/6J, mouse, plasma, ip, 30 mg/kg, Time 0.25 h, individual values (1)-(3), read-out: Plasma concentration): 132 ng/mL
concentration at 1 h ([1]; female, C57BL/6J, mouse, plasma, ip, 30 mg/kg, Time 1 h, individual values (1)-(3), read-out: Plasma concentration): 627 ng/mL
concentration at 2 h ([1]; female, C57BL/6J, mouse, plasma, ip, 30 mg/kg, Time 2 h, individual values (1)-(3), read-out: Plasma concentration): 1160 ng/mL
concentration at 12 h ([1]; female, C57BL/6J, mouse, plasma, ip, 30 mg/kg, Time 12 h, individual values (1)-(3), read-out: Plasma concentration): 2750 ng/mL
concentration at 8 h ([1]; female, C57BL/6J, mouse, plasma, ip, 30 mg/kg, Time 8 h, individual values (1)-(3)): 2190 ng/mL
duration of stable levels in plasma, liver, and bone [1, 11]: at least 12 h
levels in plasma, liver, and bone [1, 11]: single/double digit
Alp gene expression [2]: No significant differences and 0.88 and 1.46 and 1.09 and 1.63 and 1.11 and 1.2 and 1.13 and 0.7 and 1.17 and 0.71 and 0.82 and 1.61 and 1.28 and 1.02
Col1a1 gene expression [2]: No significant differences and 1.04 and 1.44 and 0.9 and 1.62 and 0.96 and 1.32 and 0.82 and 1.12 and 1.24 and 0.81 and 0.88 and 1.29 and 0.93
Osteocalcin gene expression [2]: significant increase and 1.47 and 0.79 and 1.35 and 1.31 and 2.35 and 1.34 and 2.19 and 1.5 and 2.42 and 1.3 and 1.4 and 1.23 and 2.1 and 1.83 and 1.39
Runx2 gene expression [2]: decrease and 0.41 and 0.71 and 0.95 and 0.75 and 1.16 and 0.6 and 0.57 and 0.72 and 0.73 and 0.89 and 0.83 and 1.42 and 1.07 and 0.66
